Here are results for eleven compounds from patent publication EP4417602A1, “SUBSTITUTED PYRAZOLE CARBOXAMIDES, SALTS THEREOF AND THEIR USE AS HERBICIDALLY ACTIVE SUBSTANCES” (Bayer AG, priority 2023, dated 2024).

The test system of data set [1] is ECHCG. As to the kind of experiment: E. Herbicidal post-emergence action, weed and crop plants (Tables E). Type of data set: in vivo, Echinochloa crus-galli. Conditions: application rate 320 g/ha, visual assessment after ca. 3 weeks. An excerpt: (§1) Seeds of mono- and dicotyledonous weed plants and crop plants were sown, in plastic or organic planting pots, in sandy loam, covered with soil and grown in a greenhouse under controlled growth conditions. 2 to 3 weeks after sowing, the test plants were sprayed in the single-leaf stage. The compounds according to the invention, formulated in form of wettable powders (WP) or as emulsifiable concentrates (EC), were sprayed onto the green plant parts as aqueous suspension or emulsion, with the addition of 0.5% of an additive, at an application rate of 6001 of water/ha (converted). The test plants were placed in the greenhouse for ca. 3 weeks under optimum growth conditions, and then the effect of the preparations was assessed visually in comparison with untreated controls (herbicidal effect in percent (%): 100% effect = plants have died off, 0% effect = as control plants). Tables E1 to E7 below show the effects of selected compounds of the general formula (I) according to table 1 on various harmful plants and an application rate corresponding to 320 g/ha or below obtained by the experimental procedure mentioned above. Table E1: post-emergence activity at 320g/ha against ALOMY in %

Data set [2] concerns ZEAMX. As to the kind of experiment: D. Pre-emergence effects on crop plants (Tables D). Type of data set: in vivo, Zea mays. Conditions: crop plant. The procedure, abridged: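 Seeds sown in sandy loam and covered; WP or EC formulations sprayed onto the soil surface as aqueous suspension/emulsion with 0.5% additive, at 320 g/ha or below. Greenhouse-grown; visual damage scored after ca. 3 weeks against untreated controls (0% = as control, 100% = plants dead).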

Data set [3] concerns ORYZA. The data set can be described thus: F. Post-emergence effects on crop plants (Tables F). Conditions: crop plant. Type of data set: in vivo, Oryza sativa.
Excerpt: as §1, with “F1” for “E1”, “F5” for “E7”, “crop” for “harmful”, “[…]:” for “E1:”, “ZEAMX” for “ALOMY”

In data set [4] the test system is DIGSA. The data set can be described thus: B. Herbicidal post-emergence action on harmful plants (Tables B). Type of data set: in vivo, Digitaria sanguinalis. A digest of the protocol:
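Greenhouse weeds grown in sandy loam were sprayed post-emergence at the one-leaf stage, 2-3 weeks after sowing. Compounds were applied as WP or EC in water with 0.5% additive at 600 L/ha, at 1280 g/ha or below. Visual damage was rated after about 3 weeks versus untreated plants (0-100%).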

For data set [5], the system named is VERPE. As to the kind of experiment: C. Herbicidal pre-emergence action, weed and crop plants (Tables C). Type of data set: in vivo, Veronica persica. Conditions: application rate 320 g/ha; Table C11. An excerpt:
Seeds of mono- and dicotyledonous weed plants and crop plants were sown, in plastic or organic planting pots, in sandy loam and covered with soil. The compounds according to the invention, formulated in the form of wettable powders (WP) or as emulsifiable concentrates (EC), were applied to the surface of the covering soil as aqueous suspension or emulsion, with the addition of 0.5% of an additive, at an application rate of 6001 of water/ha (converted). Following treatment, the pots were placed in a greenhouse and kept under optimum growth conditions for the test plants. The visual grading of the damage to the test plants was carried out after ca. 3 weeks in comparison to untreated controls (herbicidal effect in percent (%): 100% effect = plants have died off, 0% effect = as control plants). Tables C1 to C12 below show the effects of selected compounds of the general formula (I) according to table 1 on various harmful plants and an application rate corresponding to 320 g/ha or below obtained by the experimental procedure mentioned above. Table C1: pre-emergence activity at 320g/ha against KCHSC in %

Data set [6] deals with ALOMY. As to the kind of experiment: E. Herbicidal post-emergence action, weed and crop plants (Tables E). Conditions: application rate 320 g/ha, visual assessment after ca. 3 weeks. Type of data set: in vivo, Alopecurus myosuroides.
Excerpt: as §1

Data set [7] relates to ALOMY. As to the kind of experiment: B. Herbicidal post-emergence action on harmful plants (Tables B). Type of data set: in vivo, Alopecurus myosuroides. On the procedure:
Seeds of mono- and dicotyledonous weed plants were placed in plastic pots in sandy loam soil (doubly sown with in each case one species of mono- or dicotyledonous weed plants per pot), covered with soil and cultivated in a greenhouse under controlled growth conditions. 2 to 3 weeks after sowing, the test plants were treated at the one-leaf stage. The compounds of the invention, formulated in the form of wettable powders (WP) or as emulsion concentrates (EC), were applied onto the green parts of the plants as aqueous suspension or emulsion with addition of 0.5% additive at a water application rate of 600 liters per hectare (converted). After the test plants had been kept in the greenhouse under optimum growth conditions for about 3 weeks, the activity of the preparations was rated visually in comparison to untreated controls. For example, 100% activity = the plants have died, 0% activity = like control plants. Tables B1 to B12, below, show the effects of selected compounds of the general formula (I) according to table 1 on various harmful plants and an application rate corresponding to 1280 g/ha or below obtained by the experimental procedure mentioned above. Table B1a: post-emergence activity at 1280g/ha against ABUTH in %

For data set [8], the system named is TRZAS. As to the kind of experiment: D. Pre-emergence effects on crop plants (Tables D). The class given is in vivo, Triticum aestivum. Conditions: crop plant. The source says: Seeds of mono- and dicotyledonous weed plants and crop plants were sown, in plastic or organic planting pots, in sandy loam and covered with soil. The compounds according to the invention, formulated in the form of wettable powders (WP) or as emulsifiable concentrates (EC), were applied to the surface of the covering soil as aqueous suspension or emulsion, with the addition of 0.5% of an additive, at an application rate of 6001 of water/ha (converted).
Following treatment, the pots were placed in a greenhouse and kept under optimum growth conditions for the test plants. The visual grading of the damage to the test plants was carried out after ca. 3 weeks in comparison to untreated controls (herbicidal effect in percent (%): 100% effect = plants have died off, 0% effect = as control plants).
Tables D1 to D5 below show the effects of various compounds of the general formula (I) according to Table 1 on various crop plants and an application rate corresponding to 320 g/ha or below obtained by the experimental procedure mentioned above in Biological Examples, Section C. Table D1a: pre-emergence activity at 320g/ha against ZEAMX in %

Setting [9] is: application rate 80 g/ha, Table D1b.
Where [10] appears, read: application rate 1280 g/ha, Table B12a.
Setting [11] is: application rate 320 g/ha, Table B9b.
Where [12] appears, read: application rate 1280 g/ha, Table B9a.
Setting [13] is: application rate 80 g/ha, Table D2b.

With `COCc1nn(C)cc1C(=O)N1CCCC1Cc1ccccc1F` (racemic) [Example I-002], the “post-emergence activity against ECHCG in %” value in data set [1] is on record as 80%.

On to `COCc1nn(C(=O)OC(C)(C)C)cc1C(=O)N1CCCC1Cc1ccccc1F` (racemic) [Example I-040], for which the “pre-emergence activity against ZEAMX” value in data set [2] (setting [9]) was determined as 20%.

With `COCc1nn(C)cc1C(=O)N1CCCC1Cc1ccccc1F` (single isomer, unassigned) [Example I-003], the “post-emergence activity against ECHCG in %” value in data set [1] is 80%. Moreover, the “post-emergence activity against ORYZA in %” value in data set [3] (application rate 80 g/ha) stood at 0%. Besides, the “post-emergence activity against DIGSA” value in data set [4] (application rate 80 g/ha, Table B12c) is reported as 100%; in data set [4] (application rate 320 g/ha, Table B12b) it was 100%; in data set [4] (setting [10]), 100%. The “pre-emergence activity against VERPE” value in data set [5] is 80%. Further, the “post-emergence activity against ALOMY in %” value in data set [6] was 80%. For the same compound, the “post-emergence activity against ALOMY” value in data set [7] (application rate 80 g/ha, Table B9c) worked out at 100%; in data set [7] (setting [11]), 100%; in data set [7] (setting [12]), 100%.

Regarding `Cn1cc(C(=O)N2CCCC2Cc2ccc(F)cc2F)c(COc2ccccc2)n1` (racemic) [Example I-008], the “post-emergence activity against ORYZA in %” value in data set [3] (application rate 80 g/ha) and in data set [3] (application rate 320 g/ha) was 0% throughout. Besides, in data set [8] (setting [13]), the “pre-emergence activity against TRZAS” value was 10%. Also, the “pre-emergence activity against ZEAMX” value in data set [2] (setting [9]) stood at 10%; in data set [2] (application rate 320 g/ha, Table D1a), 20%. The “post-emergence activity against ALOMY” value in data set [7] (setting [12]) came to 90%.

In the case of `CNC(=O)n1cc(C(=O)N2CCCC2Cc2ccccc2F)c(COC)n1` (racemic) [Example I-051], in data set [6], the “post-emergence activity against ALOMY in %” value came out at 80%.

Turning to `COCc1nn2c(c1C(=O)N1CCCC1Cc1ccccc1F)CCC2` (racemic) [Example I-022], the “pre-emergence activity against TRZAS” value in data set [8] (setting [13]) was found to be 0%. Moreover, in data set [2] (setting [9]), the “pre-emergence activity against ZEAMX” value came out at 0%.

`COCc1c(C(=O)N2CCCC2Cc2ccccc2F)cnn1C` (single isomer, unassigned) [Example I-157]: the “post-emergence activity against ORYZA in %” value in data set [3] (application rate 80 g/ha) worked out at 10%. The “pre-emergence activity against VERPE” value in data set [5] is 80%. Besides, in data set [6], the “post-emergence activity against ALOMY in %” value was 80%.

For the compound `COCc1c(C(=O)N2CCCC2Cc2ccccc2Cl)cnn1C` (racemic) [Example I-170], the “post-emergence activity against ECHCG in %” value in data set [1] was determined as 80%. Moreover, in data set [3] (application rate 80 g/ha), the “post-emergence activity against ORYZA in %” value is 0%. Further, in data set [5], the “pre-emergence activity against VERPE” value is reported as 80%. Further, the “post-emergence activity against ALOMY in %” value in data set [6] was 80%. Further, the “post-emergence activity against ALOMY” value in data set [7] (setting [12]) is 90%.

For `C=C(c1ccccc1F)C1CCCN1C(=O)c1cn(C)nc1COC` (racemic) [Example I-023], in data set [4] (setting [10]), the “post-emergence activity against DIGSA” value is reported as 90%. Moreover, the “pre-emergence activity against ZEAMX” value in data set [2] (setting [9]) stood at 0%.

As to `COCc1nn(C)cc1C(=O)N1CCCC1C(O)c1ccccc1F` (single isomer, unassigned) [Example I-053], the “pre-emergence activity against VERPE” value in data set [5] was 80%.

As for `Cn1cc(C(=O)N2CCCC2Cc2ccccc2F)c(COc2ccccc2)n1` (racemic) [Example I-006], the “post-emergence activity against ORYZA in %” value in data set [3] (application rate 80 g/ha) and in data set [3] (application rate 320 g/ha) was 0% each time. The “pre-emergence activity against TRZAS” value is recorded as 0% in data set [8] (setting [13]) and 20% in data set [8] (application rate 320 g/ha, Table D2a). For the same compound, in data set [4] (setting [10]), the “post-emergence activity against DIGSA” value is given as 90%. The “pre-emergence activity against ZEAMX” value in data set [2] (setting [9]) is recorded as 0%. Further, the “post-emergence activity against ALOMY in %” value in data set [6] amounted to 90%. Further, the “post-emergence activity against ALOMY” value in data set [7] (setting [11]) and in data set [7] (setting [12]) was 90% each time.
